# From patent US20200284781A1, “TEST METHOD OF COMBINED TOXICITY FOR CH[…] BUTACHLOR” (priority 2019, published 2020)
# How the values were obtained:
# [1] = Combined toxicity of chlorpyrifos and butachlor to zebrafish larvae; conditions: in vivo, read-out: LC50 (95% CI) of the component in the mixture
# Description: (§1) F. Combined toxicity test: The toxicity test is performed on zebrafish larvae and Japanese medaka larvae, the test procedure is as follows:
# a. Zebrafish larvae: The LC50 value of zebrafish larvae with a single pesticide for 96 h is a toxic unit, and 5-7 different concentrations with a geometrical ratio, test method and calculation of LC50 value of each exposure time are the same as 1.4.2;
# (§2) H. Data processing: Calculating the LC50 value of pesticides on larvae and their 95% confidence limits by probit analysis based on the number and time of dead fish larvae, and using 95% confidence limit of LC50 as the criterion to determine whether the toxicity difference of different drugs is significant, LC50≤0.1 mg a.i. L^−1, is hypertoxic; 0.1<LC50≤1.0 mg a.i. L^−1, is high toxicity; 1.0<LC50≤10.0 mg a.i. L^−1, is medium toxicity; LC50>10.0 mg a.i. L^−1, is low toxicity, the maximum allowable concentration of MPC employs 100 as the protection factor, the formula is: MPC=96 h-LC50/100, to get the maximum allowable concentration of a poison.
# [2] = Single toxicity of chlorpyrifos and butachlor to zebrafish embryos; type: in vivo; conditions: in vivo, other: immersion in test solution (waterborne exposure), read-out: LC50 (95% CI); for LC50 at 24 h: exposure time 24 h; for LC50 at 48 h: exposure time 48 h; for LC50 at 72 h: exposure time 72 h; for LC50 at 96 h: exposure time 96 h
# Description: (§3) D. Toxicity of pesticides to zebrafish embryos: On the basis of clearing the effective concentration range of pesticides in pre-tests, diluting the pesticide stock solution with standard dilution water to 5-7 concentrations with a geometrical ratio, and using a 24 well cell culture dish for exposure apparatus, the volume of each well is 3 mL, 20 wells are the same experimental concentration, and the remaining 4 wells are blank controls; during the experiment, of test solution and 1 randomly selected 3 hpf (hourpost-fertilization) normal fertilized embryo at the embryo shield stage were put into every well, set up 3 replicates at each concentration, every culture dish as a replicate, and incubating in a multifunctional incubator at 26±1° C. with a photoperiod of 14 h (light): 10 h (dark);
# (§4) Preferably, in the step D, the test solution needs to be replaced every 24 h, observing and microscopical observing the CK group and the exposed group every 24 h, recording the number of embryos with normal development and malformations, and calculating the number of embryos hatched and larvae malformations, the experiment lasts 96 hours.
# as §3, with “24-well” for “24 well”, “poisoning” for “exposure”, “experiment, 2 mL” for “experiment,”, “C. V:” for “C.”
# as §2
# as §4, with “Wherein” for “Preferably,”, “hours, for structural analysis.” for “hours.”
# zebrafish embryos = assay: as above; type: in vivo
# Description: as §3, §4
# as §3, with “24-well” for “24 well”, “poisoning” for “exposure”, “experiment, 2 mL” for “experiment,”, “C. V:” for “C.”
# as §2
# as §4, with “Wherein” for “Preferably,”, “hours, for structural analysis.” for “hours.”
# [3] = Single toxicity of chlorpyrifos and butachlor to zebrafish larvae; conditions: in vivo, other: immersion in test solution (waterborne exposure), read-out: LC50 (95% CI); for LC50 at 24 h: exposure time 24 h; for LC50 at 48 h: exposure time 48 h; for LC50 at 72 h: exposure time 72 h; for LC50 at 96 h: exposure time 96 h
# Description: (§5) H. Data processing: Calculating the LC50 value of pesticides on larvae and their 95% confidence limits by probit analysis based on the number and time of dead fish larvae, and using 95% confidence limit of LC50 as the criterion to determine whether the toxicity difference of different pesticides is significant, LC50≤0.1 mg a.i. L^−1, is hypertoxic; 0.1<LC50≤1.0 mg a.i. L^−1, is high toxicity; 1.0<LC50≤[…] a.i. L^−1, is medium toxicity; LC50>10.0 mg a.i. L^−1 is low toxicity. The maximum allowable concentration of MPC employs 100 as the protection factor, the formula is: MPC=96 h-LC50/100, to get the maximum allowable concentration of a poison.
# as §2
# (§6) Wherein the larvae in the migratory period in step E refer to fish 120 h after fertilization of eggs, for improving the accuracy of the test.
# [4] = Single toxicity of chlorpyrifos and butachlor to Japanese medaka larvae; conditions: in vivo, other: immersion in test solution (waterborne exposure), read-out: LC50 (95% CI); for LC50 at 24 h: exposure time 24 h; for LC50 at 48 h: exposure time 48 h; for LC50 at 72 h: exposure time 72 h; for LC50 at 96 h: exposure time 96 h
# Description: as §5, §2, §6
# [5] = Combined toxicity of chlorpyrifos and butachlor to Japanese medaka larvae; conditions: in vivo
# Description: as §1
# (§7) b. Japanese medaka: A single pesticide is used to measure the LC50 value of Japanese medaka for 96 hours, mixing chlorpyrifos and butachlor to form binary mixed systems with different ratios of 1:4, 2:3, 1:1, 3:2 and 4:1, according to the pre-experiment results, 5-7 different concentrations are set at equal logarithmic intervals to determine the combined toxicity of the mixed system to Japanese medaka, the method is the same as the determination of single toxicity, the total concentration of the binary mixture is the sum of the concentrations of the two components;
# as §7, with “different concentrations with a geometrical ratio are set” for “different concentrations are set”, “to Japanese medaka the method” for “to Japanese medaka, the method”, “as the determination, of single” for “as the determination of single”
# as §2
# [6] = Japanese medaka larvae, chlorpyrifos:butachlor ratio 4:1, 24 h, read-out: LC50 (95% CI) of the component in the mixture
# [7] = Japanese medaka larvae, chlorpyrifos:butachlor ratio 4:1, 96 h, read-out: LC50 (95% CI) of the component in the mixture
# [8] = other: immersion in test solution (waterborne exposure), Japanese medaka larvae, chlorpyrifos:butachlor ratio 1:1, 24 h, read-out: LC50 (95%) CI of the component in the mixture
# [9] = other: immersion in test solution (waterborne exposure), Japanese medaka larvae, chlorpyrifos:butachlor ratio 1:1, 48 h, read-out: LC50 (95%) CI of the component in the mixture
# [10] = other: immersion in test solution (waterborne exposure), Japanese medaka larvae, chlorpyrifos:butachlor ratio 1:1, 72 h, read-out: LC50 (95%) CI of the component in the mixture
# [11] = other: immersion in test solution (waterborne exposure), Japanese medaka larvae, chlorpyrifos:butachlor ratio 1:1, 96 h, read-out: LC50 (95%) CI of the component in the mixture
# [12] = other: immersion in test solution (waterborne exposure), Japanese medaka larvae, chlorpyrifos:butachlor ratio 4:1, 48 h, read-out: LC50 (95% CI) of the component in the mixture
# [13] = other: immersion in test solution (waterborne exposure), Japanese medaka larvae, chlorpyrifos:butachlor ratio 4:1, 72 h, read-out: LC50 (95% CI) of the component in the mixture
# [14] = other: immersion in test solution (waterborne exposure), chlorpyrifos:butachlor ratio 1:4, 24 h, read-out: LC50 (95% CI) of the component in the mixture
# [15] = other: immersion in test solution (waterborne exposure), chlorpyrifos:butachlor ratio 1:4, 48 h, read-out: LC50 (95% CI) of the component in the mixture
# [16] = other: immersion in test solution (waterborne exposure), chlorpyrifos:butachlor ratio 1:4, 72 h, read-out: LC50 (95% CI) of the component in the mixture
# [17] = other: immersion in test solution (waterborne exposure), chlorpyrifos:butachlor ratio 1:4, 96 h, read-out: LC50 (95% CI) of the component in the mixture
# [18] = other: immersion in test solution (waterborne exposure), chlorpyrifos:butachlor ratio 2:3, 24 h, read-out: LC50 (95% CI) of the component in the mixture
# [19] = other: immersion in test solution (waterborne exposure), chlorpyrifos:butachlor ratio 2:3, 48 h, read-out: LC50 (95% CI) of the component in the mixture
# [20] = other: immersion in test solution (waterborne exposure), chlorpyrifos:butachlor ratio 2:3, 72 h, read-out: LC50 (95% CI) of the component in the mixture
# [21] = other: immersion in test solution (waterborne exposure), chlorpyrifos:butachlor ratio 2:3, 96 h, read-out: LC50 (95% CI) of the component in the mixture
# [22] = other: immersion in test solution (waterborne exposure), chlorpyrifos:butachlor ratio 3:2, 24 h, read-out: LC50 (95% CI) of the component in the mixture
# [23] = other: immersion in test solution (waterborne exposure), chlorpyrifos:butachlor ratio 3:2, 48 h, read-out: LC50 (95% CI) of the component in the mixture
# [24] = other: immersion in test solution (waterborne exposure), chlorpyrifos:butachlor ratio 3:2, 72 h, read-out: LC50 (95% CI) of the component in the mixture
# [25] = other: immersion in test solution (waterborne exposure), chlorpyrifos:butachlor ratio 3:2, 96 h, read-out: LC50 (95% CI) of the component in the mixture
structure (smiles),measurement,setting,value
"CCCCOCN(C(=O)CCl)c1c(CC)cccc1CC [Butachlor, butachlor]",LC50 at 24 h,[1]; equitoxic ratio,0.91 µg/mL
same,LC50 at 48 h,[1]; equitoxic ratio,0.72 µg/mL
same,LC50 at 72 h,[1]; equitoxic ratio,0.45 µg/mL
same,LC50 at 96 h,[1]; equitoxic ratio,0.26 µg/mL
same,LC50 at 24 h,[1]; equivalent concentration (1:1),0.18 µg/mL
same,LC50 at 48 h,[1]; equivalent concentration (1:1),0.16 µg/mL
same,LC50 at 72 h,[1]; equivalent concentration (1:1),0.14 µg/mL
same,LC50 at 96 h,[1]; equivalent concentration (1:1),0.11 µg/mL
same,LC50 at 24 h,[2],32.8 µg/mL
same,LC50 at 48 h,[2],5.82 µg/mL
same,LC50 at 72 h,[2],4.42 µg/mL
same,LC50 at 96 h,[2],1.93 µg/mL
same,effects of exposure on zebrafish embryo development,zebrafish embryos,"egg coagulation, pericardial edema, yolk sac edema, and spinal curvature"
same,times more toxic to zebrafish embryos than chlorpyrifos,zebrafish embryos; 96 h,6.75 times
same,LC50 at 24 h,[3],0.67 µg/mL
same,LC50 at 48 h,[3],0.59 µg/mL
same,LC50 at 72 h,[3],0.51 µg/mL
same,LC50 at 96 h,[3],0.44 µg/mL
same,LC50 at 24 h,[4],0.85 µg/mL
same,LC50 at 48 h,[4],0.72 µg/mL
same,LC50 at 72 h,[4],0.54 µg/mL
same,LC50 at 96 h,[4],0.43 µg/mL
same,LC50 at 24 h,[5]; [6],0.2 µg/mL
same,LC50 at 96 h,[5]; [7],0.036 µg/mL
same,LC50 at 24 h,[5]; [8],1.53 µg/mL
same,LC50 at 48 h,[5]; [9],1.22 µg/mL
same,LC50 at 72 h,[5]; [10],0.93 µg/mL
same,LC50 at 96 h,[5]; [11],0.81 µg/mL
same,LC50 at 48 h,[5]; [12],0.15 µg/mL
same,LC50 at 72 h,[5]; [13],0.11 µg/mL
same,LC50 at 24 h,[5]; [14],2.29 µg/mL
same,LC50 at 48 h,[5]; [15],1.3 µg/mL
same,LC50 at 72 h,[5]; [16],1.14 µg/mL
same,LC50 at 96 h,[5]; [17],0.88 µg/mL
same,LC50 at 24 h,[5]; [18],2.29 µg/mL
same,LC50 at 48 h,[5]; [19],0.66 µg/mL
same,LC50 at 72 h,[5]; [20],0.43 µg/mL
same,LC50 at 96 h,[5]; [21],0.35 µg/mL
same,LC50 at 24 h,[5]; [22],1.48 µg/mL
same,LC50 at 48 h,[5]; [23],1.29 µg/mL
same,LC50 at 72 h,[5]; [24],0.87 µg/mL
same,LC50 at 96 h,[5]; [25],0.66 µg/mL
"CCOP(=S)(OCC)Oc1nc(Cl)c(Cl)cc1Cl [Chlorpyrifos, chlorpyrifos]",LC50 at 24 h,[1]; equitoxic ratio,0.55 µg/mL
same,LC50 at 48 h,[1]; equitoxic ratio,0.43 µg/mL
same,LC50 at 72 h,[1]; equitoxic ratio,0.27 µg/mL
same,LC50 at 96 h,[1]; equitoxic ratio,0.16 µg/mL
same,LC50 at 24 h,[1]; equivalent concentration (1:1),0.18 µg/mL
same,LC50 at 48 h,[1]; equivalent concentration (1:1),0.16 µg/mL
same,LC50 at 72 h,[1]; equivalent concentration (1:1),0.14 µg/mL
same,LC50 at 96 h,[1]; equivalent concentration (1:1),0.11 µg/mL
same,LC50 at 24 h,[2],170 µg/mL
same,LC50 at 48 h,[2],120 µg/mL
same,LC50 at 72 h,[2],63.4 µg/mL
same,LC50 at 96 h,[2],13 µg/mL
same,effects of exposure on zebrafish embryo development,zebrafish embryos,"egg coagulation, pericardial edema, yolk sac edema, and spinal curvature"
same,LC50 at 24 h,[3],0.67 µg/mL
same,LC50 at 48 h,[3],0.39 µg/mL
same,LC50 at 72 h,[3],0.34 µg/mL
same,LC50 at 96 h,[3],0.27 µg/mL
same,LC50 at 24 h,[4],0.75 µg/mL
same,LC50 at 48 h,[4],0.4 µg/mL
same,LC50 at 72 h,[4],0.35 µg/mL
same,LC50 at 96 h,[4],0.24 µg/mL
same,LC50 at 24 h,[5]; [6],0.8 µg/mL
same,LC50 at 96 h,[5]; [7],0.14 µg/mL
same,LC50 at 24 h,[5]; [8],1.53 µg/mL
same,LC50 at 48 h,[5]; [9],1.22 µg/mL
same,LC50 at 72 h,[5]; [10],0.93 µg/mL
same,LC50 at 96 h,[5]; [11],0.81 µg/mL
same,LC50 at 48 h,[5]; [12],0.61 µg/mL
same,LC50 at 72 h,[5]; [13],0.43 µg/mL
same,LC50 at 24 h,[5]; [14],0.57 µg/mL
same,LC50 at 48 h,[5]; [15],0.33 µg/mL
same,LC50 at 72 h,[5]; [16],0.28 µg/mL
same,LC50 at 96 h,[5]; [17],0.22 µg/mL
same,LC50 at 24 h,[5]; [18],1.52 µg/mL
same,LC50 at 48 h,[5]; [19],0.44 µg/mL
same,LC50 at 72 h,[5]; [20],0.28 µg/mL
same,LC50 at 96 h,[5]; [21],0.23 µg/mL
same,LC50 at 24 h,[5]; [22],2.23 µg/mL
same,LC50 at 48 h,[5]; [23],1.94 µg/mL
same,LC50 at 72 h,[5]; [24],1.31 µg/mL
same,LC50 at 96 h,[5]; [25],0.99 µg/mL
